Drawing on patent US20050282818A1, “Ubiquitin ligase inhibitors” (Rigel Pharmaceuticals, Inc., priority 2004, published 2005), this text covers IC50 for eleven compounds.

Read-outs that look alike come from different tables or passages of the source. Some results are limits rather than exact numbers.

Assay [1] concerns H1299 cells. As to the kind of experiment: Cell proliferation PAD assay, H1299. It counts as cell-based. The settings on record: Homo sapiens, 48 hours. The method in brief:
(§1)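 Plate 2,000 cells per well, then add compound after 24 h as duplicate 6.3-fold dilutions, with 10 mM master stock diluted 500-fold on transfer. Grow 48 h at 37 °C in 5% CO2, fix with formamide, stain nuclei with DAPI, and count cells by imaging.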

For assay [2], the system named is A549 cells. As to the kind of experiment: Cell proliferation PAD assay, A549. It counts as cell-based. The settings on record: Homo sapiens, 48 hours. In outline: as §1
The target in assay [3] is T1, TRAF6/Uev1A/Ubc13 (Homo sapiens, UniProt Q9Y4K3).
T1 sequence (Q9Y4K3 1-522): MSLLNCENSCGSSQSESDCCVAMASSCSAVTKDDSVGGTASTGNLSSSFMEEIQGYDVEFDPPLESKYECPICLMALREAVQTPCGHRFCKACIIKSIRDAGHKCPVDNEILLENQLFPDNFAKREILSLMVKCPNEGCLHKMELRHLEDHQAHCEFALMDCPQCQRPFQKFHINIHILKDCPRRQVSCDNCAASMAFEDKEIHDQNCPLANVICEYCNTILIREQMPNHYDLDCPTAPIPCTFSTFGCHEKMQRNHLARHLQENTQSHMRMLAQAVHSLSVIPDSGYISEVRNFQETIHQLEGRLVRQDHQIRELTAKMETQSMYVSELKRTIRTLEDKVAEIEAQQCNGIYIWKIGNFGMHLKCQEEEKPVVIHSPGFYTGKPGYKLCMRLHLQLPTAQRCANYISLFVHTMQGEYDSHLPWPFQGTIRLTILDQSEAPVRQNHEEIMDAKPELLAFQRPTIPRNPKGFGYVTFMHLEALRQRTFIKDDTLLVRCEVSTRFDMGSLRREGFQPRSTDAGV
As to the kind of experiment: TRAF6/Uev1A/Ubc13 plate-based ubiquitin ligase assay. It counts as biochemical. The method in brief:
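Ligase activity was read as luminescence from anti-Flag/HRP detection of Flag-ubiquitin bound to casein-blocked Ni-plates alongside His-ubiquitin after a 1 h room-temperature reaction. Buffer: 62.5 mM Tris pH 7.5, 6.25 mM MgCl2, 1.0 mM DTT, 2 μM ATP; E1, Uev1a/Ubc13 and TRAF6 added last to start. IC50s derived across compound concentrations.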

Setting [4] is: NCI-H1299, 3pt, read-out: H1299 3pt.
Where [5] appears, read: NCI-H1299, 6pt, read-out: H1299 6pt.

With `O=S(=O)(Oc1ccc(N2CCN(S(=O)(=O)c3ccc(Cl)c4nonc34)CC2)cc1)c1ccc(Cl)c2nonc12` [compound 171, 4-{4-[(7-chloro-2,1,3-benzoxadiazol-4-yl)sulfonyl]piperazin-1-yl}phenyl 7-chloro-2,1,3-benzoxadiazole-4-sulfonate], the IC50 in assay [1] (setting [4]) is 1 to 20 µM; in assay [1] (setting [5]) it was not below 20 µM; in assay [2] (3pt, read-out: A549 3pt), not below 20 µM; in assay [2] (6pt, read-out: A549 6pt), not below 20 µM; in assay [3], 1 to 20 µM.
Regarding `N#CC1(c2ccccc2)CCN(c2ccc([N+](=O)[O-])c3nonc23)CC1` [compound 141, 1-(7-nitro-2,1,3-benzoxadiazol-4-yl)-4-phenylpiperidine-4-carbonitrile], the IC50 in assay [1] (setting [4]) is not below 20 µM; in assay [2] (3pt, read-out: A549 3pt) it was not below 20 µM; in assay [3], 1 to 20 µM.
With `O=[N+]([O-])c1ccc(N2CCN(c3cc(C(F)(F)F)ccn3)CC2)c2nonc12` [compound 90, 4-nitro-7-{4-[4-(trifluoromethyl)pyridin-2-yl]piperazin-1-yl}-2,1,3-benzoxadiazole], the IC50 is not below 20 µM in assay [1] (setting [4]); 1 to 20 µM in assay [1] (setting [5]); not below 20 µM in assay [2] (3pt, read-out: A549 3pt); 1 to 20 µM in assay [2] (6pt, read-out: A549 6pt); 1 to 20 µM in assay [3].
As for `Cc1cc(C)cc(-c2ccc([N+](=O)[O-])c3nonc23)c1` [compound 286, 4-(3,5-Dimethylphenyl)-7-nitro-2,1,3-benzoxadiazole], the IC50 in assay [1] (setting [4]) was 1 to 20 µM; in assay [1] (setting [5]), less than 1 µM; in assay [2] (3pt, read-out: A549 3pt), 1 to 20 µM; in assay [2] (6pt, read-out: A549 6pt) it was not below 20 µM; in assay [3], not below 20 µM.
Regarding `O=C(c1ccc(F)cc1)C1CCN(c2ccc([N+](=O)[O-])c3nonc23)CC1` [compound 142, (4-fluorophenyl)[1-(7-nitro-2,1,3-benzoxadiazol-4-yl)piperidin-4-yl]methanone], the IC50 is not below 20 µM in assay [1] (setting [4]); not below 20 µM in assay [2] (3pt, read-out: A549 3pt); 1 to 20 µM in assay [3].
`Cc1ccc(N2CCN(c3ccc([N+](=O)[O-])c4nonc34)CC2)cc1C` [compound 140, 4-[4-(3,4-dimethylphenyl)piperazin-1-yl]-7-nitro-2,1,3-benzoxadiazole]: the IC50 in assay [1] (setting [4]) was not below 20 µM; in assay [2] (3pt, read-out: A549 3pt), not below 20 µM; in assay [3], 1 to 20 µM.
As to `O=S(=O)(c1ccc(Cl)c2nonc12)N1CCN(c2ccccc2)CC1` [compound 186, 4-chloro-7-[(4-phenylpiperazin-1-yl)sulfonyl]-2,1,3-benzoxadiazole], the IC50 is 1 to 20 µM in assay [1] (setting [4]); less than 1 µM in assay [1] (setting [5]); 1 to 20 µM in assay [2] (3pt, read-out: A549 3pt); 1 to 20 µM in assay [2] (6pt, read-out: A549 6pt); not below 20 µM in assay [3].
For the compound `O=S(=O)(Nc1ccc2cn[nH]c2c1)c1c(O)ccc2nonc12` [compound 339, 5-hydroxy-N-(1H-indazol-6-yl)2,1,3-benzoxadiazole-4-sulfonamide], the IC50 was not below 20 µM in assay [1] (setting [5]); not below 20 µM in assay [2] (6pt, read-out: A549 6pt); not below 20 µM in assay [3].
For `CC(=O)N1CCN(S(=O)(=O)c2c(Sc3cccc4cccnc34)ccc3nonc23)CC1` [compound 214, 8-({4-[(4-acetylpiperazin-1-yl)sulfonyl]-2,1,3-benzoxadiazol-5-yl}thio)quinoline], the IC50 in assay [1] (setting [4]) was in the range of 1 to 20 µM; in assay [2] (3pt, read-out: A549 3pt), 1 to 20 µM; in assay [3], 1 to 20 µM.
Turning to `O=S(=O)(Nc1cccc(F)c1)c1ccc(Cl)c2nonc12` [compound 263, 7-chloro-N-(3-fluorophenyl)-2,1,3-benzoxadiazole-4-sulfonamide], the IC50 in assay [1] (setting [4]) is 1 to 20 µM; in assay [2] (3pt, read-out: A549 3pt), 1 to 20 µM; in assay [3], not below 20 µM.
Consider `O=c1[nH]c2ccccc2n1C1CCN(S(=O)(=O)c2ccc(Cl)c3nonc23)CC1` [compound 188, 1-{1-[(7-chloro-2,1,3-benzoxadiazol-4-yl)sulfonyl]piperidin-4-yl}-1,3-dihydro-2H-benzimidazol-2-one], for which the IC50 in assay [1] (setting [4]) is 1 to 20 µM; in assay [1] (setting [5]) it was less than 1 µM; in assay [2] (3pt, read-out: A549 3pt) it was 1 to 20 µM; in assay [2] (6pt, read-out: A549 6pt) it was not below 20 µM; in assay [3] it was not below 20 µM.
